For orientation: GI50 means the concentration at which growth is held to half of that of the control.

Where two headings read alike, the source gives them in different places.

Results on six compounds are retold here after publication PMC5798451 (European journal of medicinal chemistry, 2017).

The test system of experiment [1] is HeLa cells. As to the kind of experiment: Flow cytometric analysis of cell cycle distribution. The format is cell-based, human. As to conditions: 24 h treatment, PI flow cytometry. A general note: Flow cytometry measures light scatter and fluorescence of single cells or particles in a stream.
Experiment [2] deals with HeLa cells. The experiment in a line: Apoptosis assay annexin-V-FITC/PI, HeLa. As to conditions: for induction of apoptosis: 24 or 48 h, annexin-V-FITC/PI. The format is cell-based, human.
Experiment [3] has as its system A549. The experiment in a line: Apoptosis assay annexin-V-FITC/PI, A549. The format is cell-based, human. As to conditions: A549, 24 or 48 h.
For experiment [4], the system named is HeLa cells. As to the kind of experiment: Mitochondrial membrane potential. The format is cell-based, human. As to conditions: 0.1–1.0 µM, 6-48 h, JC-1.
The subject of experiment [5] is HeLa cells. The experiment in a line: ROS production. The format is cell-based, human. As to conditions: 1 µM, starting at 12–24 h, H2-DCFDA.
Experiment [6] concerns HeLa cells. As to the kind of experiment: Western blot analysis of cell cycle and apoptosis proteins. The format is cell-based, human. (A western blot detects proteins with antibodies after separation by electrophoresis.)
Experiment [7] concerns panel of 7 human tumor cell lines (HeLa, A549, HT-29, MDA-MB-231, RS4; 11, Jurkat, and Kasumi-1). The experiment in a line: MTT antiproliferative assay, panel of 7 human tumor cell lines. As to conditions: read-out: GI50s. The format is cell-based. (In general: Formazan colour is commonly taken as a measure of viable cells.)
Experiment [8] has as its system HeLa. As to conditions: cited from earlier work.
Experiment [9] concerns A549. The conditions noted are these: cited from earlier work.
Experiment [10] deals with HT-29. As to conditions: cited from earlier work.
The test system of experiment [11] is RS4; 11. As to conditions: cited from earlier work.
Experiment [12] concerns Jurkat. The conditions noted are these: cited from earlier work.
Experiment [13] deals with bovine brain tubulin (Bos taurus, UniProt P81947+Q6B856). The conditions noted are these: read-out: Inhibition of tubulin assembly IC50 ± SD; tubulin at 10 µM; ref [4]; cited from earlier work.
bovine brain tubulin, sequence (Q6B856 whole entry): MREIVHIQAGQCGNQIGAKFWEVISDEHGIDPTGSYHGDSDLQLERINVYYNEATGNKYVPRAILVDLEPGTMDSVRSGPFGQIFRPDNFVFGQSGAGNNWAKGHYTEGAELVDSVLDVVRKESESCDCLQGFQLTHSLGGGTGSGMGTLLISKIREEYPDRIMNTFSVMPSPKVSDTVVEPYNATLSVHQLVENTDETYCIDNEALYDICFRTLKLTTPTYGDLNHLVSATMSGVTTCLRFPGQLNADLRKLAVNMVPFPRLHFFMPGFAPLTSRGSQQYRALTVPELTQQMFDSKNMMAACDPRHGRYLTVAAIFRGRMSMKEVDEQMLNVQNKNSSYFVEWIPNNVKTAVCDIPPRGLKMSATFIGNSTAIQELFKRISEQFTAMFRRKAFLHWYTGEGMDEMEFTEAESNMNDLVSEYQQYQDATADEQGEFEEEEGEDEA
bovine brain tubulin, sequence (P81947 whole entry): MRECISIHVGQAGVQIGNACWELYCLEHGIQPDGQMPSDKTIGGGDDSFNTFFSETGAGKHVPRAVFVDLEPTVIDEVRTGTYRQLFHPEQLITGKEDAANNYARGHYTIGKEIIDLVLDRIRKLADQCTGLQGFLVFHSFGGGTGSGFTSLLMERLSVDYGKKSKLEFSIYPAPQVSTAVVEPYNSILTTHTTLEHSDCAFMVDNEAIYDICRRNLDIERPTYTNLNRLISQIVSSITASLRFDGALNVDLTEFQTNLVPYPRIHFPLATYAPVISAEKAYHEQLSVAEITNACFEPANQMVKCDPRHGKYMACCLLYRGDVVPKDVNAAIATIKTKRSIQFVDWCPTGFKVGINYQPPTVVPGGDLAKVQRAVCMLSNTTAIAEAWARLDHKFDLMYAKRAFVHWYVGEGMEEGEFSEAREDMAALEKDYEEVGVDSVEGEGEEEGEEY
Experiment [14] deals with tubulin (Bos taurus, UniProt P81947+Q6B856). The conditions noted are these: tubulin 1 µM, [3H]colchicine 5 µM; ref [4]; cited from earlier work.
tubulin, sequence (Q6B856 whole entry): as the sequence (Q6B856 whole entry) above
tubulin, sequence (P81947 whole entry): as the sequence (P81947 whole entry) above

Consider `CCn1ccc2c3c(=O)cc(-c4ccc5c(c4)CCCC5)[nH]c3ccc21` [Compound 23, 3-ethyl-7-(1,2,3,4-tetrahydronaphthalen-6-yl)-3H-pyrrolo[3,2-f]quinolin-9(6H)-one], for which the “effect on cell cycle progression” value in [1] is given as “induced a G2/M arrest”. In addition, the induction of apoptosis entry is “induced apoptosis in a time and concentration dependent manner” in experiment [2]; “induced apoptosis in a time and concentration dependent manner” in [3].
As to `CCn1ccc2c3c(=O)cc(-c4ccc5c(c4)OCO5)[nH]c3ccc21` [Compound 24, 7-(benzo[d][1,3]dioxol-5-yl)-3-ethyl-3H-pyrrolo[3,2-f]quinolin-9(6H)-one], in experiment [1], the “effect on cell cycle progression” value is “induced a G2/M arrest”. Further, the induction of apoptosis result in [2] is “induced apoptosis in a time and concentration dependent manner”; in [3], “induced apoptosis in a time and concentration dependent manner”. In experiment [4], the “mitochondrial transmembrane potential (Δψmt)” value is recorded as “time-dependent increase in the percentage of cells with low Δψmt”. In addition, the ROS production result in [5] is “induced significant production of ROS”. The “expression of anti-apoptotic proteins Bcl-2 and Mcl-1” value in experiment [6] (immunoblot, 50 nM) is “reduced the expression”. In addition, the PARP cleavage entry in experiment [6] (western blot) was “concentration and time-dependent cleavage of poly (ADP-Ribose) polymerase (PARP)”. Moreover, the “cyclin B1 expression” value in experiment [6] (western blot, 24 and 48 h) is “increase in cyclin B1 expression”. Moreover, in experiment [6] (western blot, 24 h), the “phosphatase cdc25c expression” value was “reduction in the expression of phosphatase cdc25c”. The “phosphorylated cdc2 kinase” value in experiment [6] (western blot, in particular after 48 h) is listed as “decrease of the phosphorylated form of cdc2 kinase”.
Turning to `O=C1C=C(c2ccccc2)Nc2cccc3ccn1c23` [Compound 30, (Z)-2-phenyl-[1,4]diazepino[3,2,1-hi]indol-4(1H)-one], in experiment [7], the IC50 was over 10000 nM.
Take `COc1ccc(/C=C\c2cc(OC)c(OC)c(OC)c2)cc1O` [CA-4, combretastatin A-4]: the apoptotic response result in experiment [2] (0.1 µM) is recorded as “strong apoptotic response”. The GI50 in [8] (ref [8] and [20]) was 4 ± 1 nM; in experiment [9] (ref [8] and [20]), 180 ± 50 nM; in experiment [10] (ref [8] and [20]), 3100 ± 100 nM; in experiment [11] (ref [8] and [20]) it was 0.8 ± 0.2 nM; in [12] (ref [8] and [20]), 5 ± 0.6 nM.
As to `CCn1ccc2c3c(=O)cc(-c4cccc5ccccc45)[nH]c3ccc21` [Compound 21, 3-ethyl-7-(naphthalen-1-yl)-3H-pyrrolo[3,2-f]quinolin-9(6H)-one], in [1], the “effect on cell cycle progression” value is “induced a G2/M arrest”. Also, the induction of apoptosis result in [2] was “induced apoptosis in a time and concentration dependent manner”; in [3] it was “induced apoptosis in a time and concentration dependent manner”.
Turning to `CCn1ccc2c3c(=O)cc(-c4ccccc4)[nH]c3ccc21` [Compound 31, 3-ethyl-7-phenyl-3H-pyrrolo[3-2-f] quinolin-9-one], the GI50 in [8] (ref [4] and [8]) was 11 ± 8 nM; in [9] (ref [4] and [8]), 32 ± 1.5 nM; in [10] (ref [4] and [8]), 32 ± 1.2 nM; in experiment [11] (ref [4] and [8]) it was 2 ± 0.3 nM; in experiment [12] (ref [4] and [8]), 0.5 ± 0.2 nM. In addition, the IC50 in experiment [13] was 570 ± 20 nM. In addition, the “Inhibition of colchicine binding % Inhibition ± SD” value in experiment [14] is 73 ± 0.7%.
